According to the supplement of paper PMC10307832:

Assays:
Assay in all cases: relative viability (nuclei count vs DMSO), 5 days (fraction); higher = more cells survive
[1] = compound: CC1=CC=C(C=C1)C(=O)CN2C3=C(CCCC3)SC2=N [Pifithrin_alpha] + CC(=O)Nc1cccc(-n2c(=O)n(C3CC3)c(=O)c3c(Nc4ccc(I)cc4F)n(C)c(=O)c(C)c32)c1 [Trametinib] (partner 0.02 µM)
Summary of the method: (§1)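 Dosing by pin tool came one day after lung cancer cell lines were seeded in 1536-well plates, using either one drug or a fixed anchor-drug dose plus five library-drug doses (not always all listed) in √10 steps. After 5 days, nuclei were counted on 4× images. Relative viability is treated-well nuclei count divided by vehicle-well nuclei count, and values are medians of duplicate plates.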

[2] = compound: CC1=CC=C(C=C1)C(=O)CN2C3=C(CCCC3)SC2=N [Pifithrin_alpha] + COc1cc2c(Oc3ccc(NC(=O)C4(C(=O)Nc5ccc(F)cc5)CC4)cc3F)ccnc2cc1OCCCN1CCOCC1 [Foretinib] (partner 0.25 µM)
Summary of the method: as §1

[3] = compound: CC1=CC=C(C=C1)C(=O)CN2C3=C(CCCC3)SC2=N [Pifithrin_alpha] + Cc1cc(Nc2cc(N3CCN(C)CC3)nc(Sc3ccc(NC(=O)C4CC4)cc3)n2)n[nH]1 [Tozasertib] (partner 0.1 µM)
Summary of the method: as §1

[4] = compound: Nc1nc(Nc2ccc3c(c2)CC[C@@H](N2CCCC2)CC3)nn1-c1cc2c(nn1)-c1ccccc1CCC2 [Bemcentinib] + COc1cc2c(Oc3ccc(NC(=O)C4(C(=O)Nc5ccc(F)cc5)CC4)cc3F)ccnc2cc1OCCCN1CCOCC1 [Foretinib] (partner 0.25 µM)
Summary of the method: as §1

Row | Cell Line | relative viability ([1]; first compound 3.162 µM) | relative viability ([1]; first compound 10 µM) | relative viability ([1]; first compound 31.62 µM) | relative viability ([1]; first compound 100 µM) | relative viability ([2]; first compound 1 µM) | relative viability ([2]; first compound 3.162 µM) | relative viability ([2]; first compound 10 µM) | relative viability ([2]; first compound 31.62 µM) | relative viability ([2]; first compound 100 µM) | relative viability ([3]; first compound 1 µM) | relative viability ([3]; first compound 3.162 µM) | relative viability ([3]; first compound 10 µM) | relative viability ([3]; first compound 31.62 µM) | relative viability ([3]; first compound 100 µM) | relative viability ([4]; first compound 0.04 µM) | relative viability ([4]; first compound 0.1265 µM) | relative viability ([4]; first compound 0.4 µM) | relative viability ([4]; first compound 1.265 µM) | relative viability ([4]; first compound 4 µM) | relative viability ([1]; first compound 1 µM)
1 | SW 1573 | 0.619 | 0.567 | 0.341 | 0.31 | 1.01 | 0.891 | 0.835 | 0.753 | 0.709 | 0.184 | 0.165 | 0.177 | 0.204 | 0.174 | 0.821 | 0.954 | 0.803 | 0.797 | 0.832 | –
2 | LXF-289 | 0.731 | 0.716 | 0.587 | 0.718 | 1.02 | 1.05 | 0.995 | 0.888 | 1.01 | 0.209 | 0.172 | 0.174 | 0.147 | 0.14 | 0.959 | 1.06 | 0.976 | 0.983 | 0.994 | 0.696
3 | SK-LU-1 | 0.494 | 0.43 | 0.42 | 0.48 | 0.884 | 0.95 | 0.84 | – | 0.858 | 0.291 | 0.329 | 0.291 | – | 0.316 | 0.854 | 0.988 | 0.89 | 0.896 | 0.826 | 0.561
4 | NCI-H23 | 0.314 | 0.447 | 0.353 | 0.358 | 0.9 | 1.19 | 1.08 | – | 0.872 | 0.304 | 0.299 | 0.316 | – | 0.258 | 0.916 | 1.2 | 1.15 | 1.09 | 1.08 | 0.288
5 | SW 900 | 0.801 | 0.636 | 0.57 | 0.723 | 0.878 | 0.724 | 0.836 | 0.837 | 0.424 | 0.53 | 0.358 | 0.372 | 0.27 | 0.364 | 0.827 | 0.948 | 0.976 | 1.05 | 0.974 | 0.698
6 | CAL-12T | 0.331 | 0.274 | – | 0.268 | 0.923 | 1.18 | 1.06 | – | 0.898 | 0.348 | 0.22 | 0.234 | – | 0.226 | 1.17 | 1.1 | 0.97 | 1.11 | 1.07 | 0.295
7 | A-427 | 0.727 | 0.688 | 0.6 | 0.552 | 0.877 | 1.02 | 1.08 | 0.863 | 1.01 | 0.202 | 0.18 | 0.183 | 0.203 | 0.2 | 1.09 | 1.1 | 1.24 | 1.06 | 1.19 | 0.682
8 | NCI-H2009 | 0.265 | 0.253 | 0.218 | 0.234 | 1.19 | 1.26 | 1.18 | 0.829 | 1.05 | 0.822 | 0.755 | 0.693 | 0.413 | 0.495 | 1.29 | 1.26 | 1.25 | 1.24 | 1.24 | 0.26
9 | UMC-11 | 0.715 | 0.719 | 0.657 | 0.87 | 0.965 | 1.13 | 1.19 | 1.04 | 1.43 | 0.179 | 0.207 | 0.198 | 0.19 | 0.175 | 0.939 | 1.18 | 1.15 | 1.12 | 1.08 | 0.73
10 | NCI-H596 | 0.675 | 0.76 | 0.587 | 0.675 | 0.924 | 0.737 | 0.823 | 0.735 | 0.958 | 0.79 | 0.871 | 0.977 | 0.705 | 0.915 | 0.84 | 0.848 | 0.974 | 0.799 | 0.94 | 0.762
11 | LOU-NH91 | 0.72 | 0.731 | 0.612 | 0.568 | 0.841 | 0.874 | 0.935 | 0.868 | 0.874 | 0.663 | 0.612 | 0.637 | 0.543 | 0.578 | 0.891 | 0.895 | 0.933 | 1.02 | 0.988 | 0.746
12 | HOP-62 | 0.377 | 0.368 | 0.361 | 0.335 | 1.17 | 1.16 | 1.18 | 1.03 | 1.19 | 0.385 | 0.584 | 0.355 | 0.358 | 0.344 | 1.22 | 1.14 | 1.01 | 1.06 | 1.21 | 0.343
13 | NCI-H1993 | 0.418 | 0.508 | 0.397 | 0.4 | 0.721 | 0.566 | 0.694 | 0.661 | 0.674 | 0.586 | 0.636 | 0.573 | 0.529 | 0.559 | 0.82 | 0.76 | 0.833 | 0.764 | 0.829 | 0.485
